Where two headings read alike, the source gives them in different places.
Tests used:
[1] = tested on: P-selectin ligand activity of CLA+ T-lymphocytes; test: Parallel-plate flow chamber, CLA+ T-cell tethering and rolling on P-selectin chimera; format: cell-based, human
Procedure: To analyze the affects of 4-F-GlcNAc on the function of CLA on human T-cells, we examined the ability of 4-F-GlcNAc-treated (0.05, 0.1, 0.5 mM for 30 hrs) CLA-+ T-cells cultures to engage with immobilized E- and P-selectin chimera in the parallel-plate flow chamber. As described for flow cytometric analyses (Example 13), cells were first pretreated with neuraminidase to remove terminal sialic acid residues required for HECA-452 reactivity and for E- and P-selectin ligand activity of CLA. This approach allowed for the assessment on de novo synthesized CLA molecules.
(§1) Tethering and rolling of human T-cells on recombinant human E- and P-selectin-Ig chimera (provided by Dr. Robert Fuhlbrigge, Harvard Medical School) and human L-selectin-Ig (gift from Dr. Ray Camphausen, Wyeth/Genetics Institute, Inc., Cambridge, Mass.) were analyzed in the parallel-plate flow chamber under physiologic shear stress conditions (3). To prepare E- and P-selectin-Ig chimera spots, protein A (300 μg/15 μl 0.1M NaHCO3) was adsorbed to Ten-twenty-nine™ Petri dishes for 2 h at 37° C. Human serum albumin ([…] PBS) then added and incubated for 2 h at 37° C. to block non-specific binding sites. E-selectin-Ig (50 ng/50 μl PBS) or P-selectin-Ig (50 ng/50 μl PBS) solutions was pipetted directly over the pre-existing protein A spots for 18 h at 4° C. To prepare L-selectin-Ig spots, L-selectin-Ig (300 ng/15 μl PBS) or isotype control human IgG (300 ng/15 μl) were adsorbed directly to plastic (non-protein A-coated) for 18 h at 4° C. and blocked in 100% FBS for 2 h at 4° C.
(§2) CLA^+ T-cells or freshly isolated PBL were treated with neuraminidase and metabolic glycosylation inhibitors or with protease (bromelain) as described above, washed twice in HBSS, suspended at 2×10^6/ml in HBSS/10 mM HEPES/2 mM CaCl2 (H/H/Ca^++) and infused into the chamber over selectin chimeras. Protease treatment was performed to control for residual E-selectin activity not attributable to the expression of CLA on a protein scaffold. Cell tethering was permitted at 0.6 dynes/cm^2 for 1 min, then stepwise increments in shear stress every 15 sec were employed to a final shear stress level of 60 dynes/cm^2. The number of cells rolling/viewing field (at 100× magnification) was quantified at each level of shear stress in triplicates for a minimum of three experiments. […] Negative control experiments were performed in parallel, wherein cell binding was examined in H/H adhesion assay medium containing 5 mM EDTA as well as assaying cell binding to human IgG isotype control.
(§3) Utilizing the parallel-plate flow chamber under physiologic shear stress conditions, E-, P- and L-selectin ligand activities of human CLA^+ T-cells treated were analyzed in an identical manner as cells prepared for Western blotting and autoradiography studies.

[2] = tested on: L-selectin ligand activity of human CLA+ T-cells; test: Parallel-plate flow chamber, CLA+ T-cell rolling on L-selectin chimera; format: cell-based
Procedure: as §1, §2, §3

[3] = tested on: P-selectin ligand activity of murine Th1 cells; test: Flow chamber analysis of P-selectin binding on murine Th1 cells; format: cell-based, mouse
Excerpt: CD4+ splenocytes were isolated from C57BL-6 mice by anti-murine CD4 L3T4 magnetic bead technology (Miltenyi Biotec) according to manufacturer's protocol. […] Culturing murine T helper cells in the presence of murine IL-12 and anti-murine IL-4 produces selectin binding Th1 cells by up-regulating FucTVII (69, 70) and core 2 enzyme (43–45, 71, 72), both critical for selectin ligand synthesis (i.e. decoration of PSGL-1 (67, 68)), and prevents the production of non-selectin binding Th2 cells (67–72). Th1 cells were also generated from mice deficient in α1,3 fucosyltransferase, FucTVII, and served as negative controls (33, 38, 40). Cells were harvested and re-plated at 2×10^6cells/ml on non-Ab coated plastic with murine IL-2 (20 ng/ml) in the presence or absence of murine IL-12 (10 ng/ml) and anti-murine IL-4 moAb 11B11 (10 μg/ml) for 48 h. […] Glycosylation inhibitors were added to cultures on day 6.5 for 30 hr, after first treating cells with neuraminidase (0.1 U/ml for 1 hr at 37° C.) to remove all cell surface terminal sialic acid resides and E and P-selectin ligand activity. Since selectin ligands are dependent on terminal sialic acid (α2,3 N-acetylneuraminic acid) for activity, this approach allowed for analysis of de novo synthesized selectin ligands in the presence of 0.05 mM 4-F-GlcNAc, N-glycan inhibitors, 0.23 mM swainsonine and 0.02 mM tunicamycin, and 1 mM GlcNAc (negative control).

[4] = at 2.0 dynes/cm^2, tunicamycin 0.02 mM, swainsonine 0.23 mM, 4-F-GlcNAc 0.05 mM, BAG 2.0 mM, p<0.01
[5] = 30 hr after neuraminidase, 0.05 mM 4-F-GlcNAc, 0.23 mM swainsonine, 0.02 mM tunicamycin, 1 mM GlcNAc
[6] = 30 h following neuraminidase digestion, drug control

Compound	difference in cell rolling frequency on P-selectin chimera vs PBS recovery ([1]; 0.05 mM, p<0.001)	rolling adhesions on P-selectin chimera [1, 4]	CLA+ T-cell tethering and rolling mediated by P-selectin ([1]; neuraminidase then 0.1 and 0.5 mM for 30 hrs)	rolling adhesions on L-selectin chimera [2, 4]	recovery of P-selectin ligand activity of Th1 cells [3, 5]	recovery of P-selectin ligand activity [1, 6] [% recovery]	recovery of L-selectin ligand activity [2, 6] [% recovery]	rolling adhesions on P-selectin chimera [1]	rolling adhesions on L-selectin chimera [2]	recovery of P-selectin ligand activity of Th1 cells [3]
CC(=O)N[C@H]1C(OC(C)=O)O[C@H](COC(C)=O)[C@@H](F)[C@@H]1OC(C)=O (stereo partly drawn) [4-F-GlcNAc, 2-acetamido-2-deoxy-1,3,6-tri-O-acetyl-4-deoxy-4-fluoro-D-glucopyranose]	statistically significant	significant reductions	completely abolished	significant reductions	completely inhibited	–	–	–	–	–
CC(=O)N[C@H]1C(O)O[C@H](CO)[C@@H](O)[C@@H]1O (some centres unmarked) [GlcNAc, N-acetylglucosamine]	–	–	–	–	no effect	> 80	> 80	–	–	–
O[C@H]1[C@H]2[C@H](O)CCCN2C[C@H]1O [swainsonine]	–	–	–	–	–	–	–	no effect	no effect	no effect
tunicamycin	–	–	–	–	–	–	–	significant reductions	significant reductions	completely inhibited

Source: patent US7098195B2, “Fluorinated glucosamine analogs useful for modulating post-translational glycosylations on cells” (Health Research, Inc., priority 2001, dated 2006)
